Measurements as given in patent US7786141B2 (Vertex Pharmaceuticals Incorporated, priority 2004, dated 2010).

Tests used:
[1] = molecular target: T1, M4 muscarinic receptor (Homo sapiens, UniProt P08173); experiment: Functional mobilization of intracellular calcium (FLIPR) in M4-CHO cells; assay type: cell-based; details: M4 receptor, calcium mobilization; for Emax: read-out: M4 Efficacy
T1 construct: expressed in transfected cells; host or cells: CHO (M4-CHO)
T1 sequence (P08173 1-479): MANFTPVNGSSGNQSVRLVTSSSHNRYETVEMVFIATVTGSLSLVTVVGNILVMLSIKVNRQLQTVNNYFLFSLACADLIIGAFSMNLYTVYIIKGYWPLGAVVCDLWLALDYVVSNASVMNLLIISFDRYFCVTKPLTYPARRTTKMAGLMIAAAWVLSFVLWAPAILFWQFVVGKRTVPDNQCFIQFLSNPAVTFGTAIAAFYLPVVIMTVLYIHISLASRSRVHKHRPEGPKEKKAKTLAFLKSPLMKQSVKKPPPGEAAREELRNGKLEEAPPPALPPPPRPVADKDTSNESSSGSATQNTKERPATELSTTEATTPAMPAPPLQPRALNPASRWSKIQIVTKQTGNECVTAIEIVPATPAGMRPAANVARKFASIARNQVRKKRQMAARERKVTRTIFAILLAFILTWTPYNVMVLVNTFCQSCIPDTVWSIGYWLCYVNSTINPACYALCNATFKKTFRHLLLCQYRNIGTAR
Procedure, shortened: (§1)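 CHO cells stably expressing human M1 or M4 receptor were loaded with Fluo-3 AM (or Calcium 3 dye) in Hepes-buffered saline, pH 7.4, with 1 mM probenecid, 0.5% final DMSO. Agonist mode: compound added directly; antagonist mode: 15 min preincubation before carbachol at EC80. FLIPR fluorescence recorded 60 sec.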

[2] = molecular target: T2, M1 muscarinic receptor (Homo sapiens, UniProt P11229); experiment: Functional mobilization of intracellular calcium (FLIPR) in M1-CHO cells; assay type: cell-based; details: M1 receptor, calcium mobilization; for Emax: read-out: M1 Efficacy
T2 construct: expressed in transfected cells; host or cells: CHO (M1-CHO)
T2 sequence (P11229 1-460): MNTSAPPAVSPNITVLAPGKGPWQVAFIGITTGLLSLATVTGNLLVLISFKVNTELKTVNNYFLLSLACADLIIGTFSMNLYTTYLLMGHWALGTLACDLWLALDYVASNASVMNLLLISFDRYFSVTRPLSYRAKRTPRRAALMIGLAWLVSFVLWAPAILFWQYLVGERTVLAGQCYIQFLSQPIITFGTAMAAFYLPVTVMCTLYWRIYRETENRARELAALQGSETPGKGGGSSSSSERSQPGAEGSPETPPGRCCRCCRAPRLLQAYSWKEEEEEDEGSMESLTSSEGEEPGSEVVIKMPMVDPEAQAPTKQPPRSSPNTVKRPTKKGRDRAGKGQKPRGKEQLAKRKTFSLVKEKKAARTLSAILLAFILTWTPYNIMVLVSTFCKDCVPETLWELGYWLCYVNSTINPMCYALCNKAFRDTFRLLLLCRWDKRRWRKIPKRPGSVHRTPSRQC
Procedure, shortened: as §1

| SMILES | M4 Activity [1] | Emax [1] | M1 Activity [2] | Emax [2] |
| --- | --- | --- | --- | --- |
| CCOC(=O)N1CCC(N2CCC3(CC2)CN(C(=O)CC(C)(C)C)c2ccc(F)cc23)CC1 [compound 194] | x (activity was measured to be greater than 1.0 μM) | 65 to 85% | xxx (activity was measured to be less than 0.1 μM) | > 85% |
| COCCOC(=O)N1CC2(CCN(C3CC4CCC(C3)N4C(=O)OC3CCC3)CC2)c2cc(F)ccc21 (stereo not drawn) [compound 195] | x (activity was measured to be greater than 1.0 μM) | < 65% | xx (activity was measured to be between 0.1 μM and 1.0 μM) | < 65% |
| CC(=O)N[C@H]1CC2(CCN(C3CCCCC3)CC2)c2ccccc21 [compound 196] | x (activity was measured to be greater than 1.0 μM) | < 65% | xxx (activity was measured to be less than 0.1 μM) | 65 to 85% |
| CCOC(=O)N1C2CCC1CC(N1CCC3(CC1)CN(C(=O)Nc1ccc(F)cc1)c1ccc(F)cc13)C2 (stereo not drawn) [compound 197] | x (activity was measured to be greater than 1.0 μM) | < 65% | xx (activity was measured to be between 0.1 μM and 1.0 μM) | < 65% |
| O=C(O[C@@H]1CCOC1)N1CC2(CCN(C3CC4CCC(C3)N4C(=O)O[C@H]3CCOC3)CC2)c2cc(F)ccc21 (stereo partly drawn) [compound 198] | x (activity was measured to be greater than 1.0 μM) | < 65% | xx (activity was measured to be between 0.1 μM and 1.0 μM) | 65 to 85% |
| CCOC(=O)N1C2CCC1CC(N1CCC3(CC1)C(=O)Nc1ccccc13)C2 (stereo not drawn) [compound 199] | x (activity was measured to be greater than 1.0 μM) | < 65% | xx (activity was measured to be between 0.1 μM and 1.0 μM) | 65 to 85% |
| CC=CCOC(=O)N1C2CCC1CC(N1CCC3(CC1)CN(C(=O)N(C)C)c1ccc(F)cc13)C2 (stereo not drawn) [compound 200] | x (activity was measured to be greater than 1.0 μM) | < 65% | xx (activity was measured to be between 0.1 μM and 1.0 μM) | 65 to 85% |
| CC(=O)N1CC2(CCN(CC3CCN(C(=O)OC(C)C)CC3)CC2)c2cc(F)ccc21 [compound 202] | x (activity was measured to be greater than 1.0 μM) | < 65% | xx (activity was measured to be between 0.1 μM and 1.0 μM) | 65 to 85% |
| CN(C)C(=O)N1C2CCC1CC(N1CCC3(CC1)COc1ccc(F)cc13)C2 (stereo not drawn) [compound 203] | xx (activity was measured to be between 0.1 μM and 1.0 μM) | < 65% | xxx (activity was measured to be less than 0.1 μM) | 65 to 85% |
| Fc1ccc2c(c1)C1(CCN([C@H]3C[C@@H]4CC[C@@H]3C4)CC1)CO2 [compound 204] | x (activity was measured to be greater than 1.0 μM) | < 65% | xxx (activity was measured to be less than 0.1 μM) | 65 to 85% |
| CCOC(=O)N1C2CCC1CC(N1CCC3(CC1)CN(C(C)=O)c1ccccc13)C2 (stereo not drawn) [compound 205] | x (activity was measured to be greater than 1.0 μM) | < 65% | x (activity was measured to be greater than 1.0 μM) | < 65% |
| CC(=O)N[C@H]1CC2(CCN(C3CCOCC3)CC2)c2ccccc21 [compound 206] | x (activity was measured to be greater than 1.0 μM) | < 65% | xxx (activity was measured to be less than 0.1 μM) | 65 to 85% |
